Experimental data published in ChEMBL document CHEMBL5724696, “Autophagy assay results for EUbOPEN Chemogenomics Library” (2024).

Assays:
U2OS [1] = test: (§1) Here: values are normalized to the positive (DMSO; basel flux = defined as 100% suppression) and negative (250nM Torin1; mTOR inhibitor; maximal inducer of autophagy defined as 0% suppression) control compounds and represented as % of ER-phagy suppression. […] The impact of autophagy induction on cells is complex and depends on the affected target. […] Of note, treatment concentrations may be sub-optimal for specific compounds, leading to false negative annotations.; assay type: functional, Homo sapiens; settings: Compound Concentration 1 uM, Culturing Media DMEM, 1 % Penicillin/Streptomycin, 10% Fetal bovin serum Add-On: blasticidin, Screening Media Control DMEM, 10% Fetal bovin serum Add-On: 1 µg/ml Doxycyclin, Screening Media Samples DMEM, 10% Fetal bovin serum Add-On: 1 µg/ml Doxycyclin 250nM Torin1
U2OS [2] = test: as §1; assay type: functional, Homo sapiens; settings: Compound Concentration 1 uM, Culturing Media DMEM, 1 % Penicillin/Streptomycin, 10% Fetal bovin serum Add-On: blasticidin, Screening Media Control DMEM, 10% Fetal bovin serum Add-On: 1 µg/ml Doxycyclin, Screening Media Samples DMEM, 10% Fetal bovin serum Add-On: 1 µg/ml Doxycyclin 250nM Torin1; remark: listed apart in the source

SMILES	ER-phagy suppression (U2OS [1]; Timepoint 12 hours) [%]	ER-phagy suppression (U2OS [1]; Timepoint 24 hours) [%]	ER-phagy suppression (U2OS [1]; Timepoint 36 hours) [%]	ER-phagy suppression (U2OS [1]; Timepoint 60 hours) [%]	ER-phagy suppression (U2OS [2]; Timepoint 12 hours) [%]	ER-phagy suppression (U2OS [2]; Timepoint 24 hours) [%]	ER-phagy suppression (U2OS [2]; Timepoint 36 hours) [%]	ER-phagy suppression (U2OS [2]; Timepoint 54 hours) [%]
Cc1ccc(-c2cnc([C@@]3(O)CC[C@H](C(=O)O)C(C)(C)C3)s2)cc1Nc1cccc(C(F)(F)F)n1 [MRL-SYKi-NC]	-10.2062	-4.2474	-12.4056	-6.238	-2.6288	-19.3711	-27.7592	-26.2542
Cc1cc(Nc2nccc(C)n2)cc(-c2cnc([C@@]3(O)CC[C@H](C(=O)O)C(C)(C)C3)s2)c1 [MRL-SYKi]	-8.621	-15.4814	-12.3884	-21.2275	-2.1095	-20.7857	-24.9988	-19.5267
CN(c1ccnc(CNc2nc(Nc3ccc4c(c3)CC(=O)N4)ncc2C(F)(F)F)n1)S(C)(=O)=O [PF-00911705]	7.113	19.7718	14.8623	9.977	20.0554	26.0373	39.3297	54.466
CC(=O)NCC(=O)N1[C@@H]2CC[C@H]1c1ccc(Nc3ncc(C(F)(F)F)c(NC4CCC4)n3)cc12 [PF-03814735]	2.1297	18.4214	21.3987	29.5902	-4.576	-22.3849	-35.8376	-44.2787
Cn1cnc2c(F)c(Nc3ccc(Br)cc3Cl)c(C(=O)NOCCO)cc21 [SELUMETINIB]	8.54	20.3816	25.3525	22.2273	-10.3683	3.869	4.29	11.1979
Cn1cc(-c2ccc3nnc(Sc4ccc5ncccc5c4)n3n2)cn1 [SGX-523]	6.2538	0.9511	4.373	11.7711	-11.2391	-26.6862	-36.424	-40.7928
O=C(O)c1ccc2c(c1)nc(Nc1cccc(Cl)c1)c1ccncc12 [SILMITASERTIB]	-10.7244	-5.006	5.808	11.5407	22.7695	17.6388	22.3356	12.8536
Nc1c(C(=O)NCc2ccc(C(=O)NCCCC3CCCCC3)cc2)cnn1-c1ccccc1 [SR-318]	-4.749	-10.9122	-18.8313	-35.2993	18.9481	11.0125	12.9949	20.6922
CN1CCN(C(=O)C(C)(C)c2ccc(C(=O)Nc3cn4cc(-c5cc(C(C)(C)C)cc(C(C)(C)C)c5)ccc4n3)cc2)CC1 [T3-CLK-N]	2.466	0.7117	-6.9152	-11.2006	-1.207	-16.3306	-17.7073	-17.4198
CN1CCN(C(=O)C(C)(C)c2ccc(C(=O)Nc3cn4cc(-c5ccncc5)ccc4n3)cc2)CC1 [T3-CLK]	46.4649	79.2605	82.4738	83.9667	58.6484	70.9328	70.8309	76.3625
CN1CCC(COc2cnc(-c3cccc(Cn4nc(-c5cccc(C#N)c5)ccc4=O)c3)nc2)CC1 [TEPOTINIB]	-9.035	9.179	17.9604	23.3369	4.664	-2.8541	-6.061	-17.192
Cc1cnc(-c2cc(Cl)ccc2F)cc1-n1c(=O)n(CC(N)=O)c2cnccc21 [TP-008]	-1.571	-13.0499	-21.2168	-35.4053	-24.3103	-37.6592	-45.8786	-56.4398
CN1C(=O)[C@@H](N2CCc3cn(Cc4ccccc4)nc3C2=O)COc2ccccc21 [TP-030-1]	-22.1461	-11.0455	-18.8351	-24.8138	-1.154	-18.125	-30.7242	-23.6126
CN1C(=O)[C@@H](N2CCc3c(nn(Cc4ccccc4)c3Br)C2=O)COc2ccccc21 [TP-030-2]	-11.1908	-12.0413	-22.9996	-25.2811	7.634	-14.2706	-10.5345	-6.796
CC(=O)Nc1cccc(-n2c(=O)n(C3CC3)c(=O)c3c(Nc4ccc(I)cc4F)n(C)c(=O)c(C)c32)c1 [TRAMETINIB]	22.5636	31.8836	34.8635	24.7233	-5.637	10.9132	18.5776	29.3457
CNC(=O)c1ccccc1Nc1cc(Nc2ccc(N3CCOCC3)cc2OC)ncc1C(F)(F)F [VS-4718]	7.822	-10.4532	-8.464	-16.508	14.2845	-7.017	-5.515	11.4938
NC(=O)c1ccc(N(C(N)=O)c2c(F)cccc2F)nc1-c1ccc(F)cc1F [VX-702]	31.8026	34.6886	33.7769	30.7144	0.2881	-13.3426	-11.8024	0.1703
